In publication PMC9696794, “Synthesis and Antimicrobial Activity of Short Analogues of the Marine Antimicrobial Peptide Turgencin A: Effects of SAR Optimizations, Cys-Cys Cyclization and Lipopeptide Modifications” (International Journal of Molecular Sciences, 2022):
Where a SMILES comes first, the peptide text is derived from it. The star is where a group is joined. Lauroyl = CCCCCCCCCCCC(=O)*; Decanoyl = CCCCCCCCCC(=O)*; Octanoyl = CCCCCCCC(=O)*

Experiments:
[1] = system: B. subtilis (Bs, ATCC 23857); assay: microbe, parasite or virus in culture; format: cell-based, Bacillus subtilis; conditions: ATCC 23857, 24 h
Procedure: (§1) All cyclic and linear peptides were screened for antibacterial activity against four Gram-positive strains: B. subtilis (Bs, ATCC 23857), C. glutamicum (Cg, ATCC 13032), S. aureus (Sa, ATCC 9144) and S. epidermidis RP62A (Se, ATCC 35984), and two Gram-negative strains: E. coli (Ec, ATCC 25922) and P. aeruginosa (Pa, ATCC 27853). The activity was assessed using a broth microdilution assay according to a modified CLSI-based method. Briefly, overnight bacterial cultures were grown in Mueller–Hinton (MH) broth medium (Difco Laboratories, Detroit, MI, USA) for 2 h at room temperature. The optical density (OD600) was measured, and the bacterial suspensions were adjusted to 2.5–3 × 10^4 CFU/mL in MH medium. The bacterial suspension (50 µL) was distributed in 96-well plates (Nunc, Roskilde, Denmark) preloaded with two-fold dilution series (256 to 1 µg/mL) of peptide solutions (50 µL), giving a final well volume of 100 µL. The microplates were incubated in an EnVision 2103 microplate reader (PerkinElmer, Llantrisant, UK) at 35 °C, with OD595 recorded every hour for 24 h. MIC was defined as the lowest concentration of peptides showing an optical density less than 10% of the negative (growth) control, consisting of bacterial suspension and water. Polymyxin B sulfate (Sigma-Aldrich, St. Louis, MO, USA) and chlorhexidine acetate (CHX, Fresenius Kabi, Halden, Norway), both with concentrations ranging from 12.5 to 0.09 μg/mL, served as positive (growth inhibition) controls. All peptides were tested in triplicate.

[2] = system: C. glutamicum (Cg, ATCC 13032); assay: microbe, parasite or virus in culture; format: cell-based, Corynebacterium glutamicum; conditions: ATCC 13032, 24 h
Procedure: as §1

[3] = system: S. aureus (Sa, ATCC 9144); assay: microbe, parasite or virus in culture; format: cell-based, Staphylococcus aureus; conditions: ATCC 9144, 24 h
Procedure: as §1

[4] = system: S. epidermidis RP62A (Se, ATCC 35984); assay: microbe, parasite or virus in culture; format: cell-based, Staphylococcus epidermidis; conditions: ATCC 35984, 24 h
Procedure: as §1

E. coli (Ec, ATCC 25922) = assay: microbe, parasite or virus in culture; format: cell-based, Escherichia coli; conditions: ATCC 25922, 24 h
Procedure: as §1

[5] = system: P. aeruginosa (Pa, ATCC 27853); assay: microbe, parasite or virus in culture; format: cell-based, Pseudomonas aeruginosa; conditions: ATCC 27853, 24 h
Procedure: as §1

all bacterial strains = assay: Antibacterial MIC assay, all bacterial strains together (range or geometric mean); format: cell-based; conditions: for GM (geometric mean of the MIC values against all bacterial strains): Table 1, six bacterial strains; for GM of MIC Tot. bact.: Table S3, all bacterial test strains, MIC >256 set to 256
Procedure: The selectivity index (SI) of the peptides towards bacteria over eukaryotic cells was calculated using the geometric mean (GM) of the MIC values against all bacterial test strains, according to the method by Orlov et al.. The SI for each peptide was determined as the ratio of the RBC-EC50 value by the corresponding GM value. Larger SI values indicate greater selectivity for microbial cells. […] In general, the SI was higher against the Gram-positive bacteral strains than the Gram-negative strains. (Table S3). Overall, peptides displaying EC50 < 100 µg/mL were considered too haemolytic to be of interest for further exploration.
as §1

A. pullulans (Ap) = assay: microbe, parasite or virus in culture; format: cell-based, Aurobasidium pollulans; conditions: 48 h
Procedure: (§2) The synthesized peptides were screened for antifungal activity against the molds A. pullulans (Ap) and Rhodotorula sp. (Rh) (both obtained from Professor Arne Tronsmo, The Norwegian University of Life Sciences, Ås, Norway) and the yeast C. albicans (Ca, ATCC 10231) as previously described. In short, fungal spores were grown in potato dextrose broth media (Difco) containing 2% D(+)-glucose (Merck, Darmstadt, Germany) at 25–30 °C while shaking at 200 rpm overnight. The cultures were diluted with a dextrose media containing glucose to a concentration of approx. 4 × 10^5 spores/mL. Aliquots of the cultures (50 µL) were transferred to 96 well microtiter plates preloaded with the synthetic peptides (50 µL) in two-fold serial dilutions (256 to 1 µg/mL). Polymyxin B and CHX (both with concentrations ranging from 12.5 to 0.09 μg/mL) served as positive antibiotic controls. The microtiter plates containing the fungal spores and the test peptides were incubated at room temperature for 48 h and OD600 was recorded using a Synergy H1 Hybrid microplate reader system (BioTek, Winooski, VT, USA). MIC was defined as the lowest peptide concentration showing an optical density less than 10% of the negative (growth) control. All experiments were performed in triplicate.

[6] = system: C. albicans (Ca, ATCC 10231); assay: microbe, parasite or virus in culture; format: cell-based, Candida albicans; conditions: ATCC 10231, 48 h
Procedure: as §2

Rhodotorula sp. (Rh) = assay: microbe, parasite or virus in culture; format: cell-based; conditions: 48 h
Procedure: as §2

[7] = system: human red blood cells (RBC); assay: Haemolytic activity assay; format: cell-based; conditions: for Selectivity index (SI) G+: EC50/GM of Gram-positive strains; for SI (selectivity index = EC50/GM): haemolytic EC50 over GM of MIC against all bacterial strains, Table 1; for RBC Tox. (EC50), haemolytic activity: human RBC, 1 h, 37 °C, concentration giving 50% haemolysis
Procedure: The synthetized lipopeptides were screened for haemolytic activity against human red blood cells (RBC), in concentrations ranging from 500 to 3.9 μM, following a previously described protocol. In brief, haemolysis was determined using a heparinizied (10 IU/mL) fraction of freshly drawn human blood. A second fraction of blood, which was collected in test tubes containing ethylenediaminetetraacetic acid (EDTA, Vacutest, KIMA, Arzergrande, Italy), was used for determination of the hematocrit (hct). Plasma was removed from heparinized blood by washing three times with prewarmed phosphate-buffered saline (PBS) before being adjusted to a hematocrit of 4%. Peptides dissolved in dimethyl sulfoxide (DMSO) were further diluted with PBS to a final DMSO content of ≤1%. Triton X-100 (Sigma-Aldrich, St. Louis, MO, USA), used at a final concentration of 0.1%, served as a positive control for 100% haemolysis, whereas 1% DMSO in PBS buffer served as a negative control where no toxicity was detected. Duplicates of test solutions and erythrocytes, with 1% hct final concentration, were prepared in a 96-well polypropylene V-bottom plate (Nunc, Fischer scientific, Oslo, Norway). They were incubated under agitation at 37 °C and 800 rpm for 1 h. After centrifugation (5 min, 3000× g), 100 µL from each well were transferred to a flat-bottomed 96-well plate and absorbance was measured at 545 nm with a microplate reader (SpectraMax 190, Molecular Devices, San Jose, CA, USA). After subtracting PBS background, the percentage of haemolysis was calculated as the ratio of the absorbance in the peptide-treated and surfactant-treated samples. Three independent experiments were performed, and EC50 (the concentration giving 50% haemolysis) values are presented as averages.

[8] = system: Gram-positive bacterial strains; conditions: Table S3; MIC >256 set to 256
Procedure: as §1

[9] = system: Gram-negative bacterial strains (E. coli and P. aeruginosa); assay: Antibacterial MIC assay, Gram-negative strains together (range or geometric mean); format: cell-based; conditions: Table S3; MIC >256 set to 256
Procedure: as §1

[10] = system: fungi (A. pullulans, C. albicans, Rhodotorula sp.); assay: Antifungal MIC assay, all fungi together (range or geometric mean); format: cell-based; conditions: Table S3; MIC >128 set to 128
Procedure: as §2

[11] = Table S3, highest tested concentration used where EC50 above it

Row | Structure (SMILES) | Antimicrobial Activity (MIC) Gram + Bs [1] | Antimicrobial Activity (MIC) Gram + Cg [2] | Antimicrobial Activity (MIC) Gram + Sa [3] | Antimicrobial Activity (MIC) Gram + Se [4] | Antimicrobial Activity (MIC) Gram − Ec (E. coli (Ec, ATCC 25922)) | Antimicrobial Activity (MIC) Gram − Pa [5] | GM (geometric mean of the MIC values against all bacterial strains) (all bacterial strains) | GM of MIC Tot. bact. (all bacterial strains) | Antimicrobial Activity (MIC) Fungi Ap (A. pullulans (Ap)) | Antimicrobial Activity (MIC) Fungi Ca [6] | Antimicrobial Activity (MIC) Fungi Rh (Rhodotorula sp. (Rh)) | Selectivity index (SI) G- ([7]; Table S3, EC50/GM of Gram-negative strains, highest tested concentration used where EC50 above it) | Selectivity index (SI) G+ [7, 11] | Selectivity index (SI) Fungi ([7]; Table S3, EC50/GM of fungi, highest tested concentration used where EC50 above it) | SI (selectivity index = EC50/GM) [7] | RBC Tox. (EC50), haemolytic activity [7] | GM of MIC G+ [8] | GM of MIC G- [9] | GM of MIC Fungi [10] | Selectivity index (SI) Tot. bact. ([7]; Table S3, EC50/GM of all bacterial strains, highest tested concentration used where EC50 above it)
1 | CCCCCCCC(=O)N[C@@H](CS)C(=O)NCC(=O)N[C@@H](CCCCN)C(=O)N[C@@H](CCCCN)C(=O)N1CCC[C@H]1C(=O)NCC(=O)NCC(=O)N[C@@H](Cc1c[nH]c2ccccc12)C(=O)N[C@@H](CCCCN)C(=O)N[C@@H](CS)C(=O)N[C@@H](CCCCN)C(=O)N[C@@H](CC(C)C)C(N)=O [Peptide C8-Turg-1, C8- CGKKPGGWKC KL-NH2] (Octanoyl-CGKKPGGWKCKL-NH2) | 8 µg/mL | 4 µg/mL | 128 µg/mL | 32 µg/mL | 32 µg/mL | 128 µg/mL | 29 µg/mL | 29 µg/mL | 32 µg/mL | 128 µg/mL | 16 µg/mL | > 15 | > 50 | > 23 | >33 | >943 µg/mL | 19 µg/mL | 64 µg/mL | 40 µg/mL | 
2 | CCCCCCCCCC(=O)N[C@@H](CS)C(=O)NCC(=O)N[C@@H](CCCNC(=N)N)C(=O)N[C@@H](CCCNC(=N)N)C(=O)N[C@@H](Cc1c[nH]c2ccccc12)C(=O)NCC(=O)N[C@@H](Cc1c[nH]c2ccccc12)C(=O)N[C@@H](Cc1c[nH]c2ccccc12)C(=O)N[C@@H](CCCNC(=N)N)C(=O)N[C@@H](CS)C(=O)N[C@@H](CCCNC(=N)N)C(=O)N[C@@H](CC(C)C)C(N)=O [Peptide C10-Turg-6, C10- CGRRWGWWRC RL-NH2] (Decanoyl-CGRRWGWWRCRL-NH2) | 8 µg/mL | 16 µg/mL |  | 16 µg/mL |  |  | 23 µg/mL | 23 µg/mL | 128 µg/mL | 64 µg/mL | 128 µg/mL |  | 1 |  |  | 21 µg/mL | 16 µg/mL | 45 µg/mL | 102 µg/mL | 1
3 | CCCCCCCCCCCC(=O)N[C@@H](CS)C(=O)NCC(=O)N[C@@H](CCCNC(=N)N)C(=O)N[C@@H](CCCNC(=N)N)C(=O)N[C@@H](Cc1c[nH]c2ccccc12)C(=O)NCC(=O)N[C@@H](Cc1c[nH]c2ccccc12)C(=O)N[C@@H](Cc1c[nH]c2ccccc12)C(=O)N[C@@H](CCCNC(=N)N)C(=O)N[C@@H](CS)C(=O)N[C@@H](CCCNC(=N)N)C(=O)N[C@@H](CC(C)C)C(N)=O [Peptide C12-Turg-6, C12- CGRRWGWWRC RL-NH2] (Lauroyl-CGRRWGWWRCRL-NH2) | 16 µg/mL | 16 µg/mL |  | 16 µg/mL |  |  | 32 µg/mL | 32 µg/mL | 128 µg/mL | 64 µg/mL | >128 µg/mL |  | 2 |  | 1 | 39 µg/mL | 19 µg/mL |  |  | 
